Literature values in patent US20040087644A1, “Pharmaceutical composition in capsules that comprises a non-steroidal antiinflamatory and an optiate analgesic for handling pain” (Leopoldo Espinosa Abdala, priority 2002, published 2004).

Assays:
[1] = in vivo
[2] = tested on: pain; details: clinical studies, compared with opiates

For `O=C(c1ccccc1)c1ccc2n1CCC2C(=O)O` (centres unmarked) [Ketorolac], the “dose excreted through the urine without changes” value [1] is given as “About 90%” and the analgesic efficiency [2] is given as “comparable with opiates”.
